Literature values, collected in US20070265329A1, “Methods for the prevention of acute and delayed chemotherapy-induced nausea and vomiting (CINV)” (priority 2006, published 2007).
Where two headings read alike, the source gives them in different places.

How the values were obtained:
[1] = test system: patients following moderately emetogenic chemotherapy
[2] = or 7 days
[3] = test system: patients (acute phase CINV); details: over 24 hours (acute phase); study of 233 patients
delayed onset CINV = details: administered twice a day

still detectable in the systemic circulation at [2] [h] | peak plasma concentrate (oral, 1 mg bid over seven days) [ng/mL] | SMILES | patients who did not vomit or need additional medication for nausea ([1]; days 2-5 following moderately emetogenic chemotherapy) [%] | patients who did not vomit or need additional medication for nausea ([1]; first day following moderately emetogenic chemotherapy) [%] | most common side effects ([1]; patients taking Aloxi) | clearance in cancer patients (compared with normal volunteers) | complete response (no vomiting, no moderate or severe nausea, no rescue medication) [3] [%] | treatment of delayed onset CINV (delayed onset CINV)
≥ 168 | – | O=C1c2cccc3c2[C@H](CCC3)CN1[C@@H]1CN2CCC1CC2 [Aloxi®, palonosetron] | 64 | 72 | headache and constipation | – | – | –
– | 6.0 | CN1C2CCCC1CC(NC(=O)c1nn(C)c3ccccc13)C2 (centres unmarked) [Kytril®, granisetron] | – | – | – | approximately half that of normal volunteers | 81 | effective
